What all share (format): cell-based, human
The subject of one test is HCT116 cells. The experiment in a line: siRNA sensitization of Enzastaurin drug response, CellTiter Glo cell viability. The note with it: for IC50: Homo sapiens, HCT-116, 72 h, 72 h Enzastaurin. As to the method:
HCT116 cells are obtained from American Tissue Culture Collection, ATCC (Rockville, Md., USA) and cultured in McCoy's 5A medium supplemented with 2 mM L-glutamine and 10% fetal bovine serum (FBS), in a humidified 37° C. incubator with 5% CO2. Plates (384-well) are pre-printed using 2 siRNAs per target in the Druggable Genome v2 Library (Qiagen) such that each well contains 13 nM of an individual siRNA duplex. High throughput reverse transfections are performed by adding transfection agent Lipofectamine 2000 (Invitrogen) and 1500 cells diluted in McCoy's 5A medium supplemented with 2 mM L-glutamine and 2% FBS into each well following a standard reverse transfection protocol. Twenty-four hours post transfection, each assay plate is treated with or without 5 concentrations (0-10 μM) of Enzastaurin in 1% DMSO. Seventy-two hours later, cell viability is measured using chemiluminescence based CellTiter Glo (Promega) assay readout, according to manufacturer's recommendations. UBB siRNA (Qiagen) is the positive cell killing control and All Star Non-silencing (NS-AS) or green fluorescent protein (GFP) is the negative control. Raw signal values are normalized to untreated control wells to compare across plates. These are fit to a 4-parameter logistical model to determine IC50 values. A ‘shift’ in IC50 with respect to the negative control (described above) is calculated as: (IC50 target−IC50 control) divided by IC50 control.
In general terms: In ATP-based viability assays light output follows the ATP content of the culture.

The next test deals with RKO (HDAC 2+/−). The experiment in a line: Enzastaurin drug dose response, CellTiter Glo cell viability. The settings on record: RKO cells. As to the method:
(§1) The human colon cancer cell line, HCT116 (HDAC 2 w.t), and RKO (HDAC 2+/−), a cell line containing a nonsense mutation resulting in null protein expression of HDAC2 relative to HCT116, are obtained from American Tissue Culture Collection, ATCC (Rockville, Md., USA) and cultured in the ATCC recommended growth medium supplemented with 2 mM L-glutamine and 10% FBS, in a humidified 37° C. incubator with 5% CO2. Drug dose response experiments are performed by seeding 1000-2000 cells diluted in McCoy's 5A medium containing 25 mM N-2-hydroxyethylpiperazine-N′-2-ethanesulfonic acid (HEPES), 2 mM L-glutamine and 2% fetal bovine serum (FBS) followed by treatment with or without serial dilutions of Enzastaurin (0-100 μM) in 1% DMSO. Seventy-two or ninety-six hours later, cell viability is measured using chemiluminescence based CellTiter Glo (Promega) assay readout, according to manufacturer's recommendations. Raw signal values are normalized to untreated control and analyzed by non-linear curve fitting in GraphPad Prism (La Jolla, Calif., USA).

In another test the test system is HCT116 (HDAC 2 w.t). The description is as above. The settings on record: HCT116 cells. As to the method:
as §1

What is called IC50 is the point on the concentration scale where inhibition reaches its midpoint.

Some results are limits rather than exact numbers.

On to `Cn1cc(C2=C(c3cn(C4CCN(Cc5ccccn5)CC4)c4ccccc34)C(=O)NC2=O)c2ccccc21` [Enzastaurin, 3-(1-methyl-1H-indol-3-yl)-4-[1-[1-(pyridin-2-ylmethyl)piperidin-4-yl]-1H-indol-3-yl]-1H-pyrrole-2,5-dione], for which the “shift in IC50 values relative to negative control” value in the test on HCT116 cells (HCT116, three siRNAs that target HDAC2) was above 2 fold. For the same compound, the “cell killing in high content images” value with HCT116 cells (HCT116 treated with Enzastaurin and HDAC2 siRNA relative to negative controls and either condition alone, data not shown) was “higher degree of cell killing”. In addition, the IC50 was 3690 nM in the test on HCT116 cells (HCT116, HDAC2 siRNA: None (negative control)); 1360 nM in the test on HCT116 cells (HCT116 transfected with HDAC2 siRNA SEQ ID NO: 1); 1680 nM with HCT116 cells (HCT116 transfected with HDAC2 siRNA SEQ ID NO: 2); 2010 nM in the test with HCT116 cells (HCT116 transfected with HDAC2 siRNA SEQ ID NO: 3); 3560 nM with RKO (HDAC 2+/−) (Homo sapiens, 72 or 96 h); 8340 nM in the test on HCT116 (HDAC 2 w.t) (Homo sapiens, HCT-116, 72 or 96 h). The maximum killing effect in the test on RKO (HDAC 2+/−) is listed as 95-100%; with HCT116 (HDAC 2 w.t) it was 50-60%.

For the origin of these results see US20110288032A1, “ENZASTAURIN FOR THE TREATMENT OF CANCER” (ELI LILLY AND COMPANY, priority 2008, published 2011).
